Measurements from PubChem BioAssay AID1963840 (Molecular Pharmacology Branch, DTP, NCI, 2024).
pIC50: −log10 of the molar value. Values joined by “and” are separate entries in the source; they are usually repeats but may differ in a detail not shown here. Equal values may be shown once.

Test system: 695427-040-R-J1-PDC complex spheroid viability
Assay: Anticancer human tumor 695427-040-R-J1-PDC patient-derived colon adenocarcinoma cell line growth inhibition [POLQ]
Details: for viability, T/C: stronger effect = lower value; for pIC50: curve of compound
Protocol: Multicellular complex tumor spheroid response to Polymerase (POL) inhibitors (novobiocin, ART-558, RP6685) in combination with a variety of drugs and investigational agents in selected tumor cell lines
The POL inhibitors (novobiocin, ART-558, and RP6685) were evaluated both individually and in combination with standard of care and investigational anticancer small molecules within a complex spheroid model of solid tumors. . Complex spheroids include a stromal component modeled by human endothelial cells (HUVEC) and fibroblasts modeled by human mesenchymal stem cells (MSCs). The concentration ranges selected for each drug and investigational agent were based upon clinically achievable concentrations if the clinical Cmax of the agent was known.
Compounds. The drugs and investigational agents: novobiocin (NSC847541), ART-558 (NSC835418), RP-6685 (NSC848927), peposertib (NSC802822), ceralasertib (NSC780249), elimusertib (NSC800525), camonsertib (NSC841442), AZD-1390 (NSC803789), olaparib (NSC753686), talazoparib (NSC767125), rucaparib (NSC756644), sotorasib (NSC818433), MRTX-1133 (NSC836407), SN-38 (NSC673596), topotecan (NSC609699), epotoside (NSC141540), doxorubicin (NSC123127), gemcitabine (NSC613327), 5-fluorouracil (NSC19893), paclitaxel (NSC125973), vemurafenib (NSC761431), MSA-2 (NSC828583), SN-011 (NSC837082), adavosertib (NSC754352), prexasertib (NSC758257), carboplatin (NSC241240) and oxaliplatin (NSC266046), were obtained from the National Cancer Institute (NCI) Developmental Therapeutics Program Chemical Repository (21). The FDA-approved anticancer drug set is available from the Developmental Therapeutics Program at https://dtp.cancer.gov/organization/dscb/obtaining/. […] The stock solutions were prepared in dimethyl sulfoxide (DMSO, Sigma-Aldrich, St. Louis, MO, cat. D2650), except for the platinum compounds which were prepared in saline (Quality Biological, Gaithersburg, MD, cat. 114-055-101), at 800-fold the tested concentration and stored at -70 degrees C prior to their use. All drugs and investigational agents were tested over a range starting from a high concentration at or near the clinical Cmax and decreasing in half-log increments. If the clinical Cmax for an agent had not been determined, the highest concentration tested was 10 microM, except for SN-38, which was tested at a high concentration of 1 microM.
Cell Culture. All cells were maintained in an incubator at 37 degrees C and 5% CO2 with 95% humidity. The PDC lines were cultured according to standard operating procedures established by the NCI PDMR (https://pdmr.cancer.gov). Table 3 of the manuscript, lists the cell lines along with the number of the three cell types plated to form the mct-spheroids and media for tumor cell growth. After thawing, all PDC lines, except 997537-175-T-J1-PDC and 415267-285-R-J2-PDC, were cultured in Matrigel-coated flasks prepared with a working solution of 1X Ham's F-12 nutrient mix, without supplementation (Thermo Fisher Scientific, cat. 11765054), 100 U/mL penicillin-streptomycin (Thermo Fisher Scientific, cat. 15140122), and 2.5% Matrigel (Corning Inc., Corning, NY, cat. 354248) for the first three passages. The two PDC lines 997537-175-T-J1-PDC and 415267-285-R-J2-PDC were cultured on uncoated flasks. The 857933-349-R-J2-PDC line was cultured in 6C/Colon 1B media containing advanced DMEM/F-12 (Thermo Fisher Scientific, cat. 12634028), 10 mM HEPES (Thermo Fisher Scientific, cat. 15630080), 1X GlutaMAX supplement (Thermo Fisher Scientific, cat. 35050061), 0.1 mg/mL primocin (InvivoGen, San Diego, CA, cat. ant-pm-2), 10% defined fetal bovine serum, heat inactivated (HyClone Laboratories Inc., Logan, UT, cat. SH30070.03HI), 50% L-WRN conditioned media (ATCC, cat. CRL-3276), 1.25 mM N-Acetyl-L-cysteine (Sigma-Aldrich, cat. A9165), 10 mM nicotinamide (Sigma-Aldrich, cat. N0636), 1X B-27 supplement (Thermo Fisher Scientific, cat. 17504044), 1X N-2 supplement (Thermo Fisher Scientific, cat. […]
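Also: spheroids exposed to compounds for seven days.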
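For viability, T/C in this document: 100% = DMSO vehicle control viability.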

SMILES	viability, T/C (compound 0.0316 µM)	viability, T/C (compound 0.1 µM)	viability, T/C (compound 0.316 µM)	viability, T/C (compound 1 µM)	viability, T/C (compound 3.16 µM)	viability, T/C (compound 10 µM)	pIC50	viability, T/C (compound 0.00316 µM)	viability, T/C (compound 0.01 µM)	viability, T/C (compound 0.00949 µM)	viability, T/C (compound 0.03 µM)	viability, T/C (compound 0.0949 µM)	viability, T/C (compound 0.3 µM)	viability, T/C (compound 0.949 µM)	viability, T/C (compound 3 µM)	viability, T/C (compound 0.000316 µM)	viability, T/C (compound 0.001 µM)
C#Cc1c(F)ccc2cc(O)cc(-c3ncc4c(N5CC6CCC(C5)N6)nc(OCC56CCCN5CC(F)C6)nc4c3F)c12 (stereo not drawn)	102% (2×) and 106%	93.8% and 98.8% and 105%	95% and 98.2% and 97.1%	98.6% and 102% and 107%	90.7% and 98.5% and 95%	76.6% and 91% and 87.1%	< 5.00	–	–	–	–	–	–	–	–	–	–
C=CC(=O)N1CCN(c2nc(=O)n(-c3c(C)ccnc3C(C)C)c3nc(-c4c(O)cccc4F)c(F)cc23)C(C)C1 (stereo not drawn)	105% and 108% and 107%	88.5% and 91.5% and 95.3%	103% and 107% and 106%	117% and 106% and 121%	105% and 91.4% and 112%	113% (2×) and 96.9%	< 5.00	–	–	–	–	–	–	–	–	–	–
C=CCn1c(=O)c2cnc(Nc3ccc(N4CCN(C)CC4)cc3)nc2n1-c1cccc(C(C)(C)O)n1	98.5% and 104% and 103%	103% and 99.2% and 95.7%	86.5% and 95.4% and 93.7%	77.5% and 73.7% and 82%	–	–	< 6.00	99.5% and 88.8% and 103%	90.1% and 92% and 91.7%	–	–	–	–	–	–	–	–
CC(=O)O[C@H]1C(=O)[C@@]2(C)[C@H]([C@H](OC(=O)c3ccccc3)[C@]3(O)C[C@H](OC(=O)[C@H](O)[C@@H](NC(=O)c4ccccc4)c4ccccc4)C(C)=C1C3(C)C)[C@]1(OC(C)=O)CO[C@@H]1C[C@@H]2O	–	–	–	–	–	–	< 5.52	–	–	93.8% and 92.4% and 99.8%	86.1% and 95.4% and 86.8%	91.8% and 101% and 86.8%	90.8% and 96.8% and 89.7%	102% and 98.8% and 82.3%	84.5% and 89.3% and 74.2%	–	–
CC(C)n1c(=O)n(C)c2cnc3cc(F)c(-c4ccc(OCCCN5CCCCC5)nc4)cc3c21	96.7% and 98.1% and 112%	104% and 109% and 101%	109% and 104% and 106%	109% (2×) and 124%	104% and 108% and 101%	73.4% and 83.2% and 79%	< 5.00	–	–	–	–	–	–	–	–	–	–
CC1COCCN1c1cc(-c2ccnn2C)c2ccnc(-c3ccn[nH]3)c2n1 (stereo not drawn)	99% and 89.7% and 98.1%	76.9% and 79.1% and 84.7%	64.2% and 62% and 69.8%	53.6% and 51.7% and 67.6%	48.9% and 46% and 62.1%	50.2% and 47.4% and 57.1%	5.36 and 5.85 and < 5.00	–	–	–	–	–	–	–	–	–	–
CC1COCCN1c1cc(C2(O)CC3CCC(C2)O3)c2cnn(-c3ccn[nH]3)c2n1 (stereo not drawn)	100% and 101% and 103%	85.7% and 87.4% and 94.1%	79.1% and 75.7% and 85.8%	64.4% and 68.9% and 78.5%	55.6% and 52% and 69%	46.3% and 44.4% and 55.9%	5.20 and 5.29 and < 5.00	–	–	–	–	–	–	–	–	–	–
CC1COCCN1c1cc(C2(S(C)(=N)=O)CC2)nc(-c2ccnc3[nH]ccc23)n1 (stereo not drawn)	102% and 96% and 100%	96% and 102% and 100%	100% and 94.3% and 98.1%	103% and 91.7% and 102%	96.4% and 98.4% and 99.3%	80.5% and 96.6% and 81.2%	< 5.00	–	–	–	–	–	–	–	–	–	–
CCCS(=O)(=O)Nc1ccc(F)c(C(=O)c2c[nH]c3ncc(-c4ccc(Cl)cc4)cc23)c1F	106% and 102% and 97.1%	94.9% and 109% and 95.8%	95.9% and 109% and 96.2%	108% and 103% and 104%	110% and 103% and 109%	87.5% and 88.3% and 86%	< 5.00	–	–	–	–	–	–	–	–	–	–
CC[C@@]1(O)C(=O)OCc2c1cc1n(c2=O)Cc2cc3c(CN(C)C)c(O)ccc3nc2-1	101% and 113% and 103%	94.8% and 111% and 89.7%	–	–	–	–	< 7.00	102%	96.3% and 98.2% and 106%	–	–	–	–	–	–	94.3% and 106% and 102%	105% and 101% and 103%
CCc1c2c(nc3ccc(O)cc13)-c1cc3c(c(=O)n1C2)COC(=O)[C@]3(O)CC	76.8% and 99.3% and 92.6%	77.9% and 90.7% and 82.1%	65.9% and 87.4% and 76%	49.6% and 66.4% and 51.3%	–	–	< 6.00	92.3% and 98.2% and 97%	79.9% and 89.2% and 92.2%	–	–	–	–	–	–	–	–
CCc1cc2c(N3CCc4c(cc(Cn5ccnc5)cc4-c4cn(C)nc4C(F)(F)F)C3=O)cc(C)nc2c(OC)n1	107% and 108% and 105%	105% and 101% and 108%	110% and 98.6% and 100%	108% and 101% and 96.8%	104% and 112% and 110%	96.4% and 97.9% and 106%	< 5.00	–	–	–	–	–	–	–	–	–	–
CCc1cc2c(N3CCc4c(cc(Cn5ccnc5)cc4-c4cn(C)nc4C(F)(F)F)C3=O)ccnc2c(OC)n1	114% and 91.3% and 93.8%	97.6% and 96% and 98.8%	110% and 88.2% and 101%	106% and 95.6% and 101%	112% (2×) and 103%	103% and 96% and 100%	< 5.00	–	–	–	–	–	–	–	–	–	–
CNCc1ccc(-c2[nH]c3cc(F)cc4c3c2CCNC4=O)cc1	102% and 100% and 94.1%	96.6% and 99.5% and 98.4%	106% and 104% (2×)	104% and 102% and 105%	108% and 118% and 102%	102% and 111% and 103%	< 5.00	–	–	–	–	–	–	–	–	–	–
